The source of these data is PubChem BioAssay (NCI).

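Results reflect a 48-hour exposure of cells in 96-well plates to compound at five concentrations. GI50: concentration for 50% inhibition of growth. TGI: concentration producing complete growth inhibition.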

What all share (assay): growth of human tumour cells (NCI), 48 h
For experiment [1], the system named is CCRF-CEM leukemia.
For experiment [2], the system named is HCT-116 colon.
Experiment [3] concerns LOX IMVI melanoma.
The subject of experiment [4] is NCI-H460 lung.
Experiment [5] has as its system OVCAR-4 ovarian.
In experiment [6] the test system is OVCAR-8 ovarian.
The subject of experiment [7] is RXF 393 renal.
For experiment [8], the system named is SNB-19 CNS.
For experiment [9], the system named is SNB-75 CNS.
The subject of experiment [10] is NCI-H226 lung.

For the compound `O=S1(=O)c2ccccc2N=C(c2ccccc2Cl)CC1c1ccc(F)cc1` (centres undefined), the TGI was 50.5 µM in [1]; 22.9 µM in experiment [2]; 34.2 µM in [3]; 34.6 µM in [4]; 32.8 µM in experiment [5]; 48.3 µM in [6]. For the same compound, the TGI in experiment [7] came out at 20.1 µM; in experiment [8] it was 31.4 µM; in experiment [9], 47.8 µM.

With `CCCCCCCCCCCCCCCCOCC(O)CO` (centres undefined), the TGI in experiment [1] worked out at 27.3 µM; in experiment [2] it was 34.1 µM; in experiment [3], 33.4 µM; in experiment [10] it was 40 µM; in experiment [4], 37.7 µM; in experiment [5], 46.1 µM. Further, the results for the TGI in experiment [6], in [7] and in [8] were 35.4 µM, 35.7 µM and 52.4 µM, respectively.

Consider `Cc1ccc(-c2n[nH]c(=O)c3noc(-c4ccc(C)cc4)c23)cc1`, for which the GI50 in experiment [1] was 2.45 µM; in experiment [2], 0.557 µM; in experiment [3] it was 0.677 µM; in [10], 6.88 µM; in experiment [4], 0.751 µM; in experiment [5], 10.1 µM. Besides, the GI50 in experiment [6] was 1.82 µM; in experiment [7], 0.419 µM; in experiment [8] it was 2.13 µM. Also, the TGI in experiment [1] is > 100 µM; in [2] it was 75.5 µM; in [3] it was > 100 µM; in experiment [10] it was > 100 µM; in experiment [4], 25 µM; in experiment [5], 43.6 µM. Further, the TGI was 27.7 µM in [6], 2.08 µM in experiment [7] and 42.8 µM in [8].

Take `O=C(Cc1ccccc1)NN1C(=O)/C(=C\c2ccccc2O)SC1=Nc1ccccc1`: the TGI in experiment [2], in experiment [10], in [4], in experiment [5], in experiment [6] and in experiment [7] was > 100 µM each time. In addition, the TGI in experiment [8] and in experiment [9] was > 100 µM throughout.

On to `CCOC(=O)CC(NC(=O)c1ccc(N=NN(C)C)cc1)C(=O)OCC` (centres undefined), for which the TGI in [1], in [2], in experiment [3], in [10], in experiment [4] and in [5] was > 100 µM in each case. In addition, the TGI in experiment [6], in [8] and in experiment [9] was > 100 µM throughout.

Regarding `CN1CCN(c2ccc3nc(-c4ccc(OCCCCN5CCN(CCCCN6C(=O)c7cccc8cccc(c78)C6=O)CC5)cc4)[nH]c3c2)CC1`, the GI50 in experiment [1] was 47.8 µM; in [2] it was > 100 µM; in experiment [3], 37.3 µM; in experiment [10] it was 37.6 µM; in [4], 63.4 µM; in experiment [5] it was > 100 µM. Besides, the GI50 in experiment [6] is 48.6 µM; in experiment [8], > 100 µM; in [9], 28.9 µM. Moreover, the TGI in experiment [1], in experiment [2], in [3], in [10], in experiment [4] and in [5] was > 100 µM each time. In addition, the TGI in experiment [6], in experiment [8] and in [9] was > 100 µM each time.

Turning to `Cn1nc(-c2ccccc2)c(C(=O)/C=C/c2ccc(Cl)cc2)c(N2CCCC2)c1=O`, the TGI in experiment [1] came to 6.7 µM; in experiment [2], 8.11 µM; in [3], 39.2 µM; in experiment [4], 12.9 µM; in experiment [6] it was 29.7 µM; in experiment [7], 8.52 µM. Further, in [8], the TGI came to 21.7 µM.

For the compound `COc1ccc2c(c1)c1c3n2CCNN=C3CCC1`, the TGI in experiment [1], in experiment [2], in experiment [3], in experiment [10], in experiment [4] and in experiment [5] was > 100 µM each time. The TGI in experiment [6], in experiment [8] and in [9] was > 100 µM throughout.

For `CCCCNC1=C(C(=O)OCC)/C(=N/NC(=O)c2ccccc2O)CO1`, the TGI in experiment [1], in [2], in [3], in [10], in experiment [4] and in experiment [5] was > 100 µM each time. The TGI in experiment [6], in experiment [7] and in experiment [8] was > 100 µM each time.

For the compound `COc1ccc2c([nH]c3c(O)c(-c4c(C)cc5c([nH]c6c(CC=C(C)C)c(OC)ccc65)c4O)c(C)cc32)c1CC=C(C)C`, the TGI in experiment [1], in experiment [2], in experiment [3], in experiment [4], in experiment [5] and in experiment [6] was > 100 µM in each case. Besides, the TGI in [7], in experiment [8] and in experiment [9] was > 100 µM in each case.

Turning to `Nc1c(C(=O)Nc2cccc3ccccc23)sc2nc3c(cc12)C(=O)CCC3`, the GI50 in experiment [1] was 0.29 µM; in experiment [2] it was 0.327 µM; in [3], 0.554 µM; in [10], 1.16 µM; in experiment [4] it was 0.165 µM; in experiment [5] it was 2.77 µM. For the same compound, the GI50 is 0.506 µM in experiment [6], 0.603 µM in experiment [8] and 0.145 µM in [9]. Moreover, the TGI in experiment [1] is > 100 µM; in [2], > 100 µM; in experiment [3] it was > 100 µM; in experiment [10], > 63.6 µM; in [5] it was > 51.7 µM; in experiment [6], 32.1 µM. Besides, the TGI in [8] was > 81 µM; in experiment [9], 12.2 µM.

With `COc1ccc(NC(=O)C2C(=O)N(c3ccc(OC)cc3)C(=O)/C2=N\NC(N)=O)cc1` (centres undefined), the TGI in experiment [2] is 46.8 µM; in experiment [3], > 100 µM; in experiment [10] it was 51.7 µM; in experiment [4], > 100 µM; in experiment [5] it was 94.3 µM; in experiment [6], 34.6 µM. In addition, the figures for the TGI in experiment [7], in experiment [8] and in experiment [9] were 56.7 µM, > 100 µM and 49.3 µM, respectively.

`COC(=O)C(=O)C(C(=O)C(=O)Nc1cc(Cl)c(Cl)cc1Cl)c1nc2ccc([N+](=O)[O-])cc2[nH]c1=O` (centres undefined): the TGI in [1], in experiment [2], in experiment [3], in [10], in experiment [5] and in experiment [6] was > 100 µM in each case. Moreover, the TGI in experiment [7] and in [8] was > 100 µM each time.

For `CCCCCCCCCCCCCCCCCC(=O)NCC(COP(=O)(O)O)OCC` (centres undefined), the TGI in experiment [1] is > 100 µM; in [2], > 100 µM; in experiment [10] it was 58.4 µM; in experiment [5], > 100 µM; in [6], > 100 µM; in [8], 90.2 µM. The same compound came in with a TGI in [9] of 82.5 µM.

`Cc1cc(Nc2nc(-c3ccncc3)nc3ccccc23)n[nH]1`: the GI50 in [1] was 25.2 µM; in experiment [2], 1.99 µM; in [3], 2.69 µM; in experiment [10], 13.8 µM; in [4] it was 6.18 µM; in [5], 15.5 µM. Besides, the values for the GI50 in [6], in experiment [7] and in experiment [8] were 11 µM, 0.91 µM and 83.1 µM, respectively. In addition, the TGI in experiment [1], in experiment [2], in [3], in [10], in [4] and in [5] was > 100 µM each time. Besides, the TGI in [6] was > 100 µM; in experiment [7], 9.29 µM; in experiment [8] it was > 100 µM.

For `O=C(Nc1nc2ccccc2s1)c1cc(-c2ccc(F)cc2)n2nc(-c3ccccc3)cc2n1`, the GI50 in experiment [1] was 1.87 µM; in [2], 2.71 µM; in [10], 6.31 µM; in [7] it was 2.53 µM; in experiment [8], 5.21 µM; in [9], 1.75 µM. In addition, the TGI in experiment [1] is 4.52 µM; in experiment [2] it was > 100 µM; in experiment [10], > 100 µM; in [7], 6.43 µM; in experiment [8] it was > 100 µM; in experiment [9], 5.82 µM.

On to `Cc1ccc(S(=NS(=O)(=O)c2ccc(C)cc2)c2ccc(C)cc2)cc1`, for which the TGI in experiment [1], in [2], in experiment [10], in experiment [4], in experiment [6] and in experiment [7] was > 100 µM each time. Besides, the TGI in [8] was > 100 µM.

For `CC(=O)OC(=O)O/C=C\CCl`, the TGI in experiment [1], in experiment [2], in experiment [10], in experiment [4], in experiment [5] and in experiment [6] was > 100 µM each time. The TGI in [7], in experiment [8] and in [9] was > 100 µM throughout.

Take `Cc1ccc2nc(NC(=O)C(=O)CC(=O)c3cccc4ccccc34)sc2c1`: the TGI in experiment [1] is > 100 µM; in experiment [3], > 100 µM; in experiment [10], > 100 µM; in experiment [4] it was > 100 µM; in [5], 32.1 µM; in experiment [6], 56.7 µM. For the same compound, the TGI was > 100 µM in experiment [8] and 36.5 µM in experiment [9].

In the case of `C/C(CC(=O)Nc1cccc([N+](=O)[O-])c1)=N\NC(=O)CC#N`, the TGI in experiment [1], in [2], in [3], in [10], in experiment [6] and in experiment [7] was > 100 µM in each case. Besides, in experiment [9], the TGI is > 100 µM.

Consider `CC(N1CCOCC1)C(O)(c1ccccc1)c1ccccn1` (centres undefined), for which the TGI in experiment [2], in [3], in experiment [10], in [4], in experiment [5] and in [6] was > 100 µM in each case. In addition, the TGI in experiment [7], in experiment [8] and in [9] was > 100 µM in each case.

Turning to `O=CCCCC(Sc1ccccc1)Sc1ccccc1`, the TGI is 44.6 µM in experiment [1]; 28.4 µM in experiment [2]; 26.6 µM in [3]; 45.6 µM in experiment [5]; 35.8 µM in experiment [6]; > 100 µM in experiment [8]. The same compound showed a TGI in experiment [9] of 35.9 µM.

Regarding `CCN(CC)Cc1cc(Nc2c3ccccc3nc3cc(Cl)ccc23)ccc1O`, the GI50 in [1] is 2.59 µM; in experiment [2], 0.967 µM; in experiment [10] it was 1.66 µM; in experiment [4], 1.62 µM; in experiment [5] it was 1.18 µM; in experiment [6], 1.18 µM. The GI50 in [7] was 1.28 µM; in experiment [8], 2.04 µM; in experiment [9] it was 1.6 µM. Further, the TGI was > 100 µM in [1]; 2.67 µM in experiment [2]; 3.23 µM in experiment [10]; 4.8 µM in experiment [4]; 2.43 µM in [5]; 3.83 µM in experiment [6]. Further, the TGI in experiment [7] came out at 2.58 µM; in experiment [8], 5.27 µM; in experiment [9], 2.97 µM.

Consider `O=C(/C=C/c1ccccc1)CCC1C(=O)NC(=S)NC1=O`, for which the TGI in experiment [2], in [3], in experiment [10], in experiment [4], in [6] and in [7] was > 100 µM each time. The TGI in experiment [8] was > 100 µM.

In the case of `Nc1ccn(C2OC(C(OC3OC(CO)C(O)C(N)C3O)C(O)C(O)C(O)C(O)CO)C(N)C(O)C2O)c(=O)n1` (centres undefined), the TGI in experiment [1] is > 100 µM; in experiment [2], > 100 µM; in [3] it was > 100 µM; in [4], > 100 µM; in [5] it was 14.8 µM; in experiment [6], > 100 µM. Besides, in experiment [8], the TGI was > 100 µM.

`CN=C(N)N/N=C(\C)c1ccc2c(c1)Cc1ccccc1-2`: the GI50 in experiment [1] is 1.73 µM; in [2], 1.43 µM; in experiment [4], 0.556 µM; in experiment [5], 3.98 µM; in experiment [7] it was 4.06 µM; in experiment [8] it was 3.46 µM. For the same compound, in experiment [9], the GI50 is 2 µM. For the same compound, the TGI came to 7.14 µM in experiment [1]; 2.74 µM in experiment [2]; 1.81 µM in experiment [4]; 19.4 µM in experiment [5]; 66.5 µM in experiment [7]; 21.8 µM in [8]. The TGI in experiment [9] amounted to 7.01 µM.
